Measurements from patent publication US8455688B2, “HDAC inhibitors” (Lixte Biotechnology, Inc., priority 2007, dated 2013).
Values after ≈ are worked out from the molar mass of the structure shown. Read-outs that look alike come from different tables or passages of the source. One block for each compound: values may come before it.

Assays:
C. glabrata = test: Broth dilution antifungal susceptibility testing, C. glabrata; format: cell-based, Candida glabrata; conditions: 50% reduction in turbidity; for MIC: Nakaseomyces glabratus, read-out: minimum inhibitory concentration (MIC)
Description: (§1) A total of 23 isolates were tested to include 3 Candida albicans, 3 Candida glabrata, 3 Cryptococcus neoformans, 3 Aspergillus fumigatus, 3 Rhizopus oryzae, 3, Fusarium solani, 3 Pseudallescheria boydii, and 2 […]. All isolates were clinical isolates submitted to the Fungus Testing Laboratory for evaluation. Antifungal susceptibility testing was accomplished according to the methods outlined in the National Committee for Clinical Laboratory Standards, M-27A2, Reference Method for Broth Dilution Antifungal Susceptibility Testing of Yeasts; Approved Standard, and M38-A “Reference Method for Broth Dilution Antifungal Susceptibility Testing of Conidium-Forming Filamentous Fungi; Approved Standard”. This includes testing in RPMI-1640 with glutamine and without bicarbonate, an inoculum size of 0.5-2.5×10^3 for yeasts or […] for moulds, and incubation at 35° C. for 24 and 48 hours. […] Drug concentrations were 0.125-64 μg/ml. A 10 mg portion of each powder was weighed out and added to 1 ml of 100% DMSO for compound 205. The resulting concentration of […] was diluted to a working concentration of 6400 μg/ml for compound 205 in 100% DMSO. All subsequent dilutions were also made using the respective diluents. Final testing concentrations ranged from 0.125-64 μg/ml. The NCCLS recommended medium RPMI-1640 (Hardy Diagnostics, Santa Monica, Calif.) was utilized as the test medium. All isolates in this study were clinical isolates received in the Fungus Testing Laboratory for standard antifungal susceptibility testing and/or identification. Isolates, which were not sent for identification, were confirmed to assure testing integrity. A total of 23 were tested to include 3 Candida albicans, 3 Candida glabrata, 3 Cryptococcus neoformans, 3 Aspergillus fumigatus, 3 Rhizopus oryzae, 3, Fusarium solani, 3 Pseudallescheria boydii, and 2 […]. Minimum inhibitory concentrations (MIC) were determined at the first 24-hour interval where growth could be determined in the drug-free control tube.

T. rubrum = test: Broth dilution antifungal susceptibility testing, T. rubrum; format: cell-based, Trichophyton rubrum; conditions: 80% inhibition; for MIC: Trichophyton rubrum, read-out: minimum inhibitory concentration (MIC)
Description: as §1

A. fumigatus = test: Broth dilution antifungal susceptibility testing, A. fumigatus; format: cell-based, Aspergillus fumigatus; conditions: 80% inhibition; for MIC: Aspergillus fumigatus, read-out: minimum inhibitory concentration (MIC)
Description: as §1

cell line U-87 = test: Activity against the cell line U-87; format: cell-based, human; conditions: potency on an equimolar basis
C. albicans = test: Broth dilution antifungal susceptibility testing, C. albicans; format: cell-based, Candida albicans; conditions: 50% reduction in turbidity; for MIC: Candida albicans, read-out: minimum inhibitory concentration (MIC)
Description: as §1

S. apiospermum = test: Broth dilution antifungal susceptibility testing, S. apiospermum; format: cell-based, Pseudallescheria boydii; conditions: 80% inhibition; for MIC: Scedosporium apiospermum, read-out: minimum inhibitory concentration (MIC)
Description: as §1

R. arrhizus = test: Broth dilution antifungal susceptibility testing, R. arrhizus; format: cell-based, Rhizopus oryzae; conditions: 80% inhibition; for MIC: Rhizopus arrhizus, read-out: minimum inhibitory concentration (MIC)
Description: as §1

CP Control = test: Broth dilution antifungal susceptibility testing, CP Control; format: cell-based; conditions: read-out: minimum inhibitory concentration (MIC)
Description: as §1

F. solani = test: Broth dilution antifungal susceptibility testing, F. solani; format: cell-based; conditions: Fusarium solani, 80% inhibition, read-out: minimum inhibitory concentration (MIC)
Description: as §1

C. neoformans = test: Broth dilution antifungal susceptibility testing, C. neoformans; format: cell-based; conditions: Cryptococcus neoformans, 50% reduction in turbidity, read-out: minimum inhibitory concentration (MIC)
Description: as §1

[1] = 24 h, isolate 07-2964, 24 hours
[2] = 24 h, isolate 07-2965, 24 hours
[3] = 24 h, isolate 07-3013, 24 hours
[4] = 48 h, isolate 07-2964, 48 hours
[5] = 48 h, isolate 07-2965, 48 hours
[6] = 48 h, isolate 07-3013, 48 hours
[7] = 24 h, isolate 07-1743, 24 hours
[8] = 24 h, isolate 07-2055, 24 hours
[9] = 48 h, isolate 07-1743, 48 hours
[10] = 48 h, isolate 07-2055, 48 hours
[11] = 24 h, isolate 06-4126, 24 hours
[12] = 24 h, isolate 07-2039, 24 hours
[13] = 48 h, isolate 07-2039, 48 hours
[14] = 24 h, isolate 07-3006, 24 hours
[15] = 24 h, isolate 07-3011, 24 hours
[16] = 24 h, isolate 07-3012, 24 hours
[17] = 48 h, isolate 07-3006, 48 hours
[18] = 48 h, isolate 07-3011, 48 hours
[19] = 48 h, isolate 07-3012, 48 hours
[20] = 24 h, isolate 07-1333, 24 hours
[21] = 24 h, isolate 07-1502, 24 hours
[22] = 48 h, isolate 07-1333, 48 hours
[23] = 48 h, isolate 07-1502, 48 hours
[24] = 24 h, isolate 07-2044, 24 hours
[25] = 24 h, isolate 07-2078, 24 hours
[26] = 48 h, isolate 07-2044, 48 hours
[27] = 48 h, isolate 07-2078, 48 hours
[28] = 48 h, isolate 07-1755, 48 hours
[29] = 48 h, isolate 07-1867, 48 hours
[30] = 24 h, isolate 07-2665, 24 hours
[31] = 24 h, isolate 07-2737, 24 hours
[32] = 24 h, isolate 07-2829, 24 hours
[33] = 48 h, isolate 07-2737, 48 hours
[34] = 48 h, isolate 07-2829, 48 hours

MIC (C. glabrata; [1]): 2 µg/mL (≈ 5.84 µM)
MIC (C. glabrata; [2]): 1 µg/mL (≈ 2.92 µM)
MIC (C. glabrata; [3]): 2 µg/mL (≈ 5.84 µM)
MIC (C. glabrata; [4]): > 64 µg/mL
MIC (C. glabrata; [5]): > 64 µg/mL
MIC (C. glabrata; [6]): > 64 µg/mL
minimum inhibitory concentration (MIC) (C. glabrata; isolate 07-2964, 24 hours): 4 µg/mL (≈ 11.7 µM)
minimum inhibitory concentration (MIC) (C. glabrata; isolate 07-2965, 24 hours): 2 µg/mL (≈ 5.84 µM)
MIC (T. rubrum; [7]): 2 µg/mL (≈ 5.84 µM)
MIC (T. rubrum; [8]): 2 µg/mL (≈ 5.84 µM)
MIC (T. rubrum; [9]): 2 µg/mL (≈ 5.84 µM)
MIC (T. rubrum; [10]): 2 µg/mL (≈ 5.84 µM)
minimum inhibitory concentration (MIC) (T. rubrum; isolate 07-1743, 24 hours): 1 µg/mL (≈ 2.92 µM)
minimum inhibitory concentration (MIC) (T. rubrum; isolate 07-1743, 48 hours): 1 µg/mL (≈ 2.92 µM)
minimum inhibitory concentration (MIC) (T. rubrum; isolate 07-2055, 24 hours): 1 µg/mL (≈ 2.92 µM)
minimum inhibitory concentration (MIC) (T. rubrum; isolate 07-2055, 48 hours): 1 µg/mL (≈ 2.92 µM)
MIC (A. fumigatus; 24 h, isolate 05-388, 24 hours): 1 µg/mL (≈ 2.92 µM)
MIC (A. fumigatus; [11]): 0.5 µg/mL (≈ 1.46 µM)
MIC (A. fumigatus; [12]): 1 µg/mL (≈ 2.92 µM)
MIC (A. fumigatus; 48 h, isolate 05-388, 48 hours): > 64 µg/mL
MIC (A. fumigatus; [13]): > 64 µg/mL
minimum inhibitory concentration (MIC) (A. fumigatus; isolate 06-4126, 24 hours): 1 µg/mL (≈ 2.92 µM)
MIC (C. albicans; [14]): 8 µg/mL (≈ 23.4 µM)
MIC (C. albicans; [15]): 4 µg/mL (≈ 11.7 µM)
MIC (C. albicans; [16]): 4 µg/mL (≈ 11.7 µM)
MIC (C. albicans; [17]): > 64 µg/mL
MIC (C. albicans; [18]): > 64 µg/mL
MIC (C. albicans; [19]): > 64 µg/mL
minimum inhibitory concentration (MIC) (C. albicans; isolate 07-3006, 24 hours): 4 µg/mL (≈ 11.7 µM)
minimum inhibitory concentration (MIC) (C. albicans; isolate 07-3011, 24 hours): 8 µg/mL (≈ 23.4 µM)
minimum inhibitory concentration (MIC) (C. albicans; isolate 07-3012, 24 hours): 8 µg/mL (≈ 23.4 µM)
MIC (S. apiospermum; [20]): 1 µg/mL (≈ 2.92 µM)
MIC (S. apiospermum; [21]): 2 µg/mL (≈ 5.84 µM)
MIC (S. apiospermum; [22]): 1 µg/mL (≈ 2.92 µM)
MIC (S. apiospermum; [23]): 4 µg/mL (≈ 11.7 µM)
minimum inhibitory concentration (MIC) (S. apiospermum; isolate 07-1333, 24 hours): 2 µg/mL (≈ 5.84 µM)
minimum inhibitory concentration (MIC) (S. apiospermum; isolate 07-1333, 48 hours): 2 µg/mL (≈ 5.84 µM)
minimum inhibitory concentration (MIC) (S. apiospermum; isolate 07-1502, 48 hours): 2 µg/mL (≈ 5.84 µM)
MIC (R. arrhizus; [24]): 8 µg/mL (≈ 23.4 µM)
MIC (R. arrhizus; [25]): > 64 µg/mL
MIC (R. arrhizus; [26]): > 64 µg/mL
MIC (R. arrhizus; [27]): > 64 µg/mL
minimum inhibitory concentration (MIC) (R. arrhizus; isolate 07-2044, 24 hours): 4 µg/mL (≈ 11.7 µM)
MIC (CP Control; 24 hours): 8 µg/mL (≈ 23.4 µM)
MIC (CP Control; 48 hours): > 64 µg/mL
MIC (F. solani; [28]): > 64 µg/mL
MIC (F. solani; [29]): > 64 µg/mL
MIC (C. neoformans; [30]): 2 µg/mL (≈ 5.84 µM)
MIC (C. neoformans; [31]): 2 µg/mL (≈ 5.84 µM)
MIC (C. neoformans; [32]): 2 µg/mL (≈ 5.84 µM)
MIC (C. neoformans; [33]): 4 µg/mL (≈ 11.7 µM)
MIC (C. neoformans; [34]): 2 µg/mL (≈ 5.84 µM)
SMILES: O=C(CCCCCNC(=O)c1ccccc1S)Nc1ccccc1 [Compound 201, 2-mercapto-N-[5-(phenylcarbamoyl)pentyl]benzamide]
activity against the cell line U-87 (cell line U-87): most potent on an equimolar basis

MIC (C. glabrata; [1]): > 64 µg/mL
MIC (C. glabrata; [2]): > 64 µg/mL
MIC (C. glabrata; [3]): > 64 µg/mL
MIC (C. glabrata; [4]): > 64 µg/mL
MIC (C. glabrata; [5]): > 64 µg/mL
MIC (C. glabrata; [6]): > 64 µg/mL
MIC (T. rubrum; [7]): 1 µg/mL (≈ 2.57 µM)
MIC (T. rubrum; [8]): 1 µg/mL (≈ 2.57 µM)
MIC (T. rubrum; [9]): 1 µg/mL (≈ 2.57 µM)
MIC (T. rubrum; [10]): 1 µg/mL (≈ 2.57 µM)
MIC (A. fumigatus; 24 h, isolate 05-388, 24 hours): 2 µg/mL (≈ 5.15 µM)
MIC (A. fumigatus; [11]): 1 µg/mL (≈ 2.57 µM)
MIC (A. fumigatus; [12]): 1 µg/mL (≈ 2.57 µM)
MIC (A. fumigatus; 48 h, isolate 05-388, 48 hours): > 64 µg/mL
MIC (A. fumigatus; 48 h, isolate 06-4126, 48 hours): > 64 µg/mL
MIC (A. fumigatus; [13]): > 64 µg/mL
MIC (C. albicans; [14]): > 64 µg/mL
MIC (C. albicans; [15]): > 64 µg/mL
MIC (C. albicans; [16]): > 64 µg/mL
MIC (C. albicans; [17]): > 64 µg/mL
MIC (C. albicans; [18]): > 64 µg/mL
MIC (C. albicans; [19]): > 64 µg/mL
MIC (S. apiospermum; [20]): 0.5 µg/mL (≈ 1.29 µM)
MIC (S. apiospermum; [21]): 2 µg/mL (≈ 5.15 µM)
MIC (S. apiospermum; 24 h, isolate 07-1601, 24 hours): < 0.125 µg/mL
MIC (S. apiospermum; [22]): 1 µg/mL (≈ 2.57 µM)
MIC (S. apiospermum; [23]): 2 µg/mL (≈ 5.15 µM)
MIC (S. apiospermum; 48 h, isolate 07-1601, 48 hours): 0.5 µg/mL (≈ 1.29 µM)
MIC (R. arrhizus; 24 h, isolate 07-1870, 24 hours): > 64 µg/mL
MIC (R. arrhizus; [24]): > 64 µg/mL
MIC (R. arrhizus; [25]): > 64 µg/mL
MIC (R. arrhizus; 48 h, isolate 07-1870, 48 hours): > 64 µg/mL
MIC (R. arrhizus; [26]): > 64 µg/mL
MIC (R. arrhizus; [27]): > 64 µg/mL
MIC (CP Control; 24 hours): 8 µg/mL (≈ 20.6 µM)
MIC (CP Control; 48 hours): > 64 µg/mL
MIC (F. solani; 24 h, isolate 07-1399, 24 hours): > 64 µg/mL
MIC (F. solani; 24 h, isolate 07-1755, 24 hours): > 64 µg/mL
MIC (F. solani; 24 h, isolate 07-1867, 24 hours): > 64 µg/mL
MIC (F. solani; 48 h, isolate 07-1399, 48 hours): > 64 µg/mL
MIC (F. solani; [28]): > 64 µg/mL
MIC (F. solani; [29]): > 64 µg/mL
MIC (C. neoformans; [30]): 4 µg/mL (≈ 10.3 µM)
MIC (C. neoformans; [31]): > 64 µg/mL
MIC (C. neoformans; [32]): > 64 µg/mL
MIC (C. neoformans; 48 h, isolate 07-2665, 48 hours): 4 µg/mL (≈ 10.3 µM)
MIC (C. neoformans; [33]): > 64 µg/mL
MIC (C. neoformans; [34]): > 64 µg/mL
SMILES: O=C(NCCCCCCNC(=O)c1ccccc1S)c1ccccc1S [Compound 204, Bis-1,6-(2-mercaptobenzoylamino)hexane]
